Legend:
D-566MG = assay: cells; format: functional, cell-based; conditions: Homo sapiens
ECC10 = assay: cells; format: functional, cell-based; conditions: Homo sapiens;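 also: growth inhibition of ECC10 cells, read out by a cell viability assay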
Description: SANGER: Inhibition of human ECC10 cell growth in a cell viability assay.

EPLC-272H = assay: cells; format: functional, cell-based; conditions: Homo sapiens
Description: SANGER: Inhibition of human EPLC-272H cell growth in a cell viability assay.

EW-22 = assay: cells; format: functional, cell-based; conditions: Homo sapiens;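 also: growth inhibition of the EW-22 cell line, measured with a cell viability readout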
Description: SANGER: Inhibition of human EW-22 cell growth in a cell viability assay.

H9 = assay: cells; format: functional, cell-based; conditions: Homo sapiens
Description: SANGER: Inhibition of human H9 cell growth in a cell viability assay.

HSC-4 = assay: cells; format: functional, cell-based, Homo sapiens; conditions: Homo sapiens, HSC-4;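 also: growth inhibition of human HSC-4 cells, read out with a cell viability assay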
Description: SANGER: Inhibition of human HSC-4 cell growth in a cell viability assay.

KNS-62 = assay: cells; format: functional, cell-based; conditions: Homo sapiens;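 also: inhibition of cell growth, read out with a cell viability assay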
Description: SANGER: Inhibition of human KNS-62 cell growth in a cell viability assay.

LU-135 = assay: cells; format: functional, cell-based; conditions: Homo sapiens
Description: SANGER: Inhibition of human LU-135 cell growth in a cell viability assay.

NCI-H1048 = assay: cells; format: functional, cell-based; conditions: Homo sapiens;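 also: growth inhibition of human NCI-H1048 cells, read out with a cell viability assay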
Description: SANGER: Inhibition of human NCI-H1048 cell growth in a cell viability assay.

NCI-H1573 = assay: cells; format: functional, cell-based; conditions: Homo sapiens;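 also: growth inhibition of NCI-H1573 cells, read out with a cell viability assay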
Description: SANGER: Inhibition of human NCI-H1573 cell growth in a cell viability assay.

NCI-H1666 = assay: cells; format: functional, cell-based; conditions: Homo sapiens;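 also: growth inhibition of the cell line, read out with a cell viability assay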
Description: SANGER: Inhibition of human NCI-H1666 cell growth in a cell viability assay.

NCI-H2291 = assay: cells; format: functional, cell-based; conditions: Homo sapiens
Description: SANGER: Inhibition of human NCI-H2291 cell growth in a cell viability assay.

SNU-423 = assay: cells; format: functional, cell-based, Homo sapiens; conditions: Homo sapiens, SNU-423
Description: SANGER: Inhibition of human SNU-423 cell growth in a cell viability assay.

A549 = assay: cells; format: functional, cell-based; conditions: Homo sapiens;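 also: growth inhibition of A549 cells, read out with a cell viability assay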
Description: SANGER: Inhibition of human A549 cell growth in a cell viability assay.

TGBC11TKB = assay: cells; format: functional, cell-based; conditions: Homo sapiens;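 also: growth inhibition of human TGBC11TKB cells, measured by a cell viability assay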
Description: SANGER: Inhibition of human TGBC11TKB cell growth in a cell viability assay.

DMS-153 = assay: cells; format: functional, cell-based; conditions: Homo sapiens
Description: SANGER: Inhibition of human DMS-153 cell growth in a cell viability assay.

EB-3 = assay: cells; format: functional, cell-based; conditions: Homo sapiens;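 also: human EB-3 cells, growth inhibition read out via a cell viability assay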
Description: SANGER: Inhibition of human EB-3 cell growth in a cell viability assay.

EB2 = assay: cells; format: functional, cell-based; conditions: Homo sapiens;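 also: growth inhibition of EB2 cells, read out with a cell viability assay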
Description: SANGER: Inhibition of human EB2 cell growth in a cell viability assay.

ECC12 = assay: cells; format: functional, cell-based; conditions: Homo sapiens
Description: SANGER: Inhibition of human ECC12 cell growth in a cell viability assay.

HCC1599 = assay: cells; format: functional, cell-based; conditions: Homo sapiens;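 also: growth inhibition of HCC1599 cells, read out in a cell viability assay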
Description: SANGER: Inhibition of human HCC1599 cell growth in a cell viability assay.

IM-9 = assay: SANGER: Inhibition of human IM-9 cell growth in a cell viability assay.; format: functional, cell-based
IMR-5 = assay: cells; format: functional, cell-based; conditions: Homo sapiens;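 also: growth inhibition of human IMR-5 cells, read out with a cell viability assay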
Description: SANGER: Inhibition of human IMR-5 cell growth in a cell viability assay.

K052 = assay: cells; format: functional, cell-based; conditions: Homo sapiens;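 also: Read-out from a cell viability assay, IC50 reflecting suppression of K052 cell growth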
Description: SANGER: Inhibition of human K052 cell growth in a cell viability assay.

KARPAS-422 = assay: cells; format: functional, cell-based; conditions: Homo sapiens
Description: SANGER: Inhibition of human KARPAS-422 cell growth in a cell viability assay.

LB647-SCLC = assay: cells; format: functional, cell-based; conditions: Homo sapiens;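 also: cell growth inhibition, read out by a viability assay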
Description: SANGER: Inhibition of human LB647-SCLC cell growth in a cell viability assay.

LC-1F = assay: cells; format: functional, cell-based; conditions: Homo sapiens;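 also: growth inhibition of human LC-1F cells, read out with a cell viability assay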
Description: SANGER: Inhibition of human LC-1F cell growth in a cell viability assay.

LOUCY = assay: cells; format: functional, cell-based; conditions: Homo sapiens;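 also: growth inhibition of human LOUCY cells, read out with a cell viability assay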
Description: SANGER: Inhibition of human LOUCY cell growth in a cell viability assay.

MONO-MAC-6 = assay: cells; format: functional, cell-based; conditions: Homo sapiens;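 also: cell viability assay measuring growth inhibition of human MONO-MAC-6 cells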
Description: SANGER: Inhibition of human MONO-MAC-6 cell growth in a cell viability assay.

MRK-nu-1 = assay: cells; format: functional, cell-based; conditions: Homo sapiens;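 also: cell viability assay measuring growth suppression of human MRK-nu-1 cells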
Description: SANGER: Inhibition of human MRK-nu-1 cell growth in a cell viability assay.

NB1 = assay: cells; format: functional, cell-based; conditions: Homo sapiens;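 also: reduction of NB1 cell proliferation, read out with a viability assay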
Description: SANGER: Inhibition of human NB1 cell growth in a cell viability assay.

NCI-H1522 = assay: cells; format: functional, cell-based; conditions: Homo sapiens;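 also: growth inhibition of NCI-H1522 cells, read out with a cell viability assay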
Description: SANGER: Inhibition of human NCI-H1522 cell growth in a cell viability assay.

NCI-H1694 = assay: cells; format: functional, cell-based; conditions: Homo sapiens;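 also: cell viability assay measuring inhibition of growth in human NCI-H1694 cells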
Description: SANGER: Inhibition of human NCI-H1694 cell growth in a cell viability assay.

NCI-H1882 = assay: cells; format: functional, cell-based; conditions: Homo sapiens
Description: SANGER: Inhibition of human NCI-H1882 cell growth in a cell viability assay.

NCI-H1963 = assay: cells; format: functional, cell-based; conditions: Homo sapiens
Description: SANGER: Inhibition of human NCI-H1963 cell growth in a cell viability assay.

NCI-H2009 = assay: cells; format: functional, cell-based, Homo sapiens; conditions: Homo sapiens, NCI-H2009;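 also: cell viability assay measuring inhibition of NCI-H2009 cell growth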
Description: SANGER: Inhibition of human NCI-H2009 cell growth in a cell viability assay.

NCI-H2196 = assay: cells; format: functional, cell-based; conditions: Homo sapiens;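 also: cell viability assay used as the readout of growth inhibition in NCI-H2196 cells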
Description: SANGER: Inhibition of human NCI-H2196 cell growth in a cell viability assay.

NCI-H2227 = assay: cells; format: functional, cell-based; conditions: Homo sapiens;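 also: growth inhibition of the human cell line, read out with a cell viability assay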
Description: SANGER: Inhibition of human NCI-H2227 cell growth in a cell viability assay.

NCI-H322M = assay: cells; format: functional, cell-based; conditions: Homo sapiens;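 also: cell viability assay measuring inhibition of growth of human NCI-H322M cells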
Description: SANGER: Inhibition of human NCI-H322M cell growth in a cell viability assay.

NCI-H522 = assay: cells; format: functional, cell-based, Homo sapiens; conditions: Homo sapiens, NCI-H522;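 also: cell viability assay measuring growth inhibition of human NCI-H522 cells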
Description: SANGER: Inhibition of human NCI-H522 cell growth in a cell viability assay.

NCI-H64 = assay: cells; format: functional, cell-based; conditions: Homo sapiens;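 also: growth inhibition of NCI-H64 cells, read out with a cell viability assay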
Description: SANGER: Inhibition of human NCI-H64 cell growth in a cell viability assay.

NCI-H719 = assay: cells; format: functional, cell-based; conditions: Homo sapiens;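 also: growth inhibition of the cultured cell line, read out with a viability assay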
Description: SANGER: Inhibition of human NCI-H719 cell growth in a cell viability assay.

P31-FUJ = assay: cells; format: functional, cell-based; conditions: Homo sapiens;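 also: growth inhibition of P31-FUJ cells, read out with a viability assay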
Description: SANGER: Inhibition of human P31-FUJ cell growth in a cell viability assay.

PF-382 = assay: cells; format: functional, cell-based; conditions: Homo sapiens
Description: SANGER: Inhibition of human PF-382 cell growth in a cell viability assay.

REH = assay: cells; format: functional, cell-based; conditions: Homo sapiens;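 also: growth inhibition of REH cells determined with a cell viability read-out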
Description: SANGER: Inhibition of human REH cell growth in a cell viability assay.

RL95-2 = assay: cells; format: functional, cell-based; conditions: Homo sapiens;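 also: RL95-2 growth inhibition determined through a cell viability readout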
Description: SANGER: Inhibition of human RL95-2 cell growth in a cell viability assay.

SCC-3 = assay: cells; format: functional, cell-based; conditions: Homo sapiens;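 also: cell viability assay measuring inhibition of SCC-3 cell growth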
Description: SANGER: Inhibition of human SCC-3 cell growth in a cell viability assay.

SIG-M5 = assay: cells; format: functional, cell-based; conditions: Homo sapiens;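 also: cell viability assay read-out, measuring how strongly growth of cultured human SIG-M5 cells is inhibited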
Description: SANGER: Inhibition of human SIG-M5 cell growth in a cell viability assay.

SIMA = assay: cells; format: functional, cell-based, Homo sapiens; conditions: Homo sapiens, SIMA;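 also: growth inhibition of SIMA cells, measured with a cell viability readout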
Description: SANGER: Inhibition of human SIMA cell growth in a cell viability assay.

SK-MM-2 = assay: cells; format: functional, cell-based; conditions: Homo sapiens;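 also: growth inhibition of human SK-MM-2 cells, read out with a cell viability assay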
Description: SANGER: Inhibition of human SK-MM-2 cell growth in a cell viability assay.

SU-DHL-1 = assay: SANGER: Inhibition of human SU-DHL-1 cell growth in a cell viability assay.; format: functional, cell-based
SUP-T1 = assay: cells; format: functional, cell-based; conditions: Homo sapiens;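 also: growth inhibition of human SUP-T1 cells, read out as cell viability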
Description: SANGER: Inhibition of human SUP-T1 cell growth in a cell viability assay.

TALL-1 = assay: cells; format: functional, cell-based; conditions: Homo sapiens;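 also: growth inhibition of cultured human TALL-1 cells, read out by a cell viability assay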
Description: SANGER: Inhibition of human TALL-1 cell growth in a cell viability assay.

BC1 cell line = assay: SANGER: Inhibition of human BC-1 cell growth in a cell viability assay.; format: functional, cell-based
BC-3 = assay: cells; format: functional, cell-based; conditions: Homo sapiens;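 also: cell viability assay measuring growth inhibition of human BC-3 cells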
Description: SANGER: Inhibition of human BC-3 cell growth in a cell viability assay.

CA46 = assay: cells; format: functional, cell-based; conditions: Homo sapiens;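 also: growth inhibition of human CA46 cells, read out by a cell viability assay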
Description: SANGER: Inhibition of human CA46 cell growth in a cell viability assay.

TE-15 = assay: cells; format: functional, cell-based; conditions: Homo sapiens;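 also: cell viability readout of growth inhibition in TE-15 cells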
Description: SANGER: Inhibition of human TE-15 cell growth in a cell viability assay.

THP-1 = assay: cells; format: functional, cell-based; conditions: Homo sapiens;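 also: growth inhibition of THP-1 cells, read out via a cell viability assay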
Description: SANGER: Inhibition of human THP-1 cell growth in a cell viability assay.

U-698-M = assay: cells; format: functional, cell-based; conditions: Homo sapiens
Description: SANGER: Inhibition of human U-698-M cell growth in a cell viability assay.

UACC-812 = assay: cells; format: functional, cell-based; conditions: Homo sapiens
Description: SANGER: Inhibition of human UACC-812 cell growth in a cell viability assay.

WSU-NHL = assay: cells; format: functional, cell-based; conditions: Homo sapiens;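 also: growth inhibition of human WSU-NHL cells, read out with a cell viability assay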
Description: SANGER: Inhibition of human WSU-NHL cell growth in a cell viability assay.

CESS = assay: SANGER: Inhibition of human CESS cell growth in a cell viability assay.; format: functional, cell-based
CHP-126 = assay: cells; format: functional, cell-based; conditions: Homo sapiens
Description: SANGER: Inhibition of human CHP-126 cell growth in a cell viability assay.

SMILES: O=C(c1cc(Cc2n[nH]c(=O)c3ccccc23)ccc1F)N1CCN(C(=O)C2CC2)CC1 [OLAPARIB]
- IC50 (D-566MG): 2450 nM
- IC50 (ECC10): > 5000 nM
- IC50 (EPLC-272H): > 5000 nM
- IC50 (EW-22): 4360 nM
- IC50 (H9): > 5000 nM
- IC50 (HSC-4): > 5000 nM
- IC50 (KNS-62): > 5000 nM
- IC50 (LU-135): > 5000 nM
- IC50 (NCI-H1048): > 5000 nM
- IC50 (NCI-H1573): > 5000 nM
- IC50 (NCI-H1666): > 5000 nM
- IC50 (NCI-H2291): > 5000 nM
- IC50 (SNU-423): > 5000 nM
- IC50 (A549): > 5000 nM
- IC50 (TGBC11TKB): > 5000 nM

SMILES: CC(=O)O[C@@]12CO[C@@H]1C[C@H](O)[C@@]1(C)C(=O)[C@H](O)C3=C(C)[C@@H](OC(=O)[C@H](O)[C@@H](NC(=O)OC(C)(C)C)c4ccccc4)C[C@@](O)([C@@H](OC(=O)c4ccccc4)[C@H]21)C3(C)C [DOCETAXEL]
- IC50 (D-566MG): 0.182 nM
- IC50 (ECC10): 4.6 nM
- IC50 (EPLC-272H): 1.11 nM
- IC50 (EW-22): > 10 nM
- IC50 (H9): 1.24 nM
- IC50 (HSC-4): 0.239 nM
- IC50 (KNS-62): 1.12 nM
- IC50 (LU-135): > 10 nM
- IC50 (NCI-H1048): 1.92 nM
- IC50 (NCI-H1573): 6.07 nM
- IC50 (NCI-H1666): 5.05 nM
- IC50 (NCI-H2291): > 10 nM
- IC50 (SNU-423): 8.57 nM
- IC50 (A549): 0.882 nM
- IC50 (TGBC11TKB): 4.69 nM

SMILES: COc1cc([C@@H]2c3cc4c(cc3[C@@H](O[C@@H]3O[C@@H]5CO[C@@H](C)O[C@H]5[C@H](O)[C@H]3O)[C@H]3COC(=O)[C@H]23)OCO4)cc(OC)c1O [ETOPOSIDE]
- IC50 (DMS-153): > 16000 nM
- IC50 (EB-3): > 16000 nM
- IC50 (EB2): 391 nM
- IC50 (ECC12): 954 nM
- IC50 (HCC1599): 616 nM
- IC50 (HSC-4): 1260 nM
- IC50 (IM-9): > 16000 nM
- IC50 (IMR-5): 469 nM
- IC50 (K052): > 16000 nM
- IC50 (KARPAS-422): 4330 nM
- IC50 (LB647-SCLC): 2000 nM
- IC50 (LC-1F): > 16000 nM
- IC50 (LOUCY): 177 nM
- IC50 (MONO-MAC-6): 12100 nM
- IC50 (MRK-nu-1): 116 nM
- IC50 (NB1): 10200 nM
- IC50 (NCI-H1522): > 16000 nM
- IC50 (NCI-H1694): 1370 nM
- IC50 (NCI-H1882): 2680 nM
- IC50 (NCI-H1963): 12100 nM
- IC50 (NCI-H2009): 697 nM
- IC50 (NCI-H2196): 7490 nM
- IC50 (NCI-H2227): > 16000 nM
- IC50 (NCI-H322M): > 16000 nM
- IC50 (NCI-H522): 3360 nM
- IC50 (NCI-H64): 4000 nM
- IC50 (NCI-H719): > 16000 nM
- IC50 (P31-FUJ): > 16000 nM
- IC50 (PF-382): 724 nM
- IC50 (REH): 224 nM
- IC50 (RL95-2): 1110 nM
- IC50 (SCC-3): 1210 nM
- IC50 (SIG-M5): 131 nM
- IC50 (SIMA): 8850 nM
- IC50 (SK-MM-2): 9680 nM
- IC50 (SNU-423): 1750 nM
- IC50 (SU-DHL-1): 959 nM
- IC50 (SUP-T1): 706 nM
- IC50 (TALL-1): > 16000 nM
- IC50 (BC1 cell line): 545 nM
- IC50 (BC-3): 2480 nM
- IC50 (CA46): > 16000 nM
- IC50 (TE-15): 960 nM
- IC50 (THP-1): > 16000 nM
- IC50 (U-698-M): 12500 nM
- IC50 (UACC-812): > 16000 nM
- IC50 (WSU-NHL): 4360 nM
- IC50 (CESS): 384 nM
- IC50 (CHP-126): 6270 nM

Source: ChEMBL document CHEMBL1201861, “Genomics of Drug Sensitity in Cancer screening data, Wellcome Trust Sanger Institute”
